Measurements reported in patent US20120225889A1, “USE OF MACROCYCLIC LACTONE DERIVATIVES FOR THE TREATMENT OF INFLAMMATORY DISORDERS” (PIRAMAL LIFE SCIENCES LIMITED, priority 2010, published 2012).
Like-named read-outs stand apart in the source and are kept apart here.

Key:
GBP-1 = assay: Gene expression profile using RTQ-PCR: GBP-1; type: cell-based, human; settings: 3 μM, 12 h
Protocol: (§1) The effect of the compound of example 7 was measured in stimulated untreated cells from the monocytic cell line (THP-1), human monocytes and synovial cells from rheumatoid arthritis patient. The effect of the compound in the THP-1 cell line was measured in terms of gene expression and was expressed as fold changes as compared to the cell stimulated control with no drug treatment.
(§2) THP-1 cells, human monocytes and synovial cells were treated with compound of example 7 or vehicle (0.5% DMSO). Total RNA isolation using a commercial RNA extraction kit (Qiagen Corporation, Germany) The first-strand cDNA was synthesized from total RNA using first strand cDNA synthesis kit from Invitrogen Corporation (California, USA). This was followed by real time quantitative polymerase chain reaction (RTQ PCR) using gene specific primers and standard thermal program of initial denaturation at 95° C. for 5 min and cycles of 95° C. for 10 seconds, followed by 60° C. for 30 seconds (Realplex PCR machine from Eppendorf, Germany). Quantitative measurement of products made during PCR cycles was normalized against a housekeeping gene (Actin) and was used to measure the gene expression as fold changes as compared to respective control.

IL-6 [1] = assay: Gene expression profile using RTQ-PCR: IL-6; type: cell-based, human; settings: 3 μM
Protocol: as §1, §2

IL-1β = assay: Gene expression profile using RTQ-PCR: IL-1β; type: cell-based, human; settings: 3 μM
Protocol: as §1, §2

TNF-α = assay: Cytokine release assay in hPBMCs: TNF-α; type: cell-based; settings: Homo sapiens
Protocol: (§3) hPBMCs were obtained from healthy donors by centrifugation of heparinized venous blood over Ficoll/Hypaque solution (Histopaque-1077, Sigma, USA). Isolated hPBMCs were suspended in RPMI 1640 culture medium supplemented with 10% FBS and seeded at a density of 50,000 cells/well in a 96-well plate (Nunc, USA). The cells were incubated at 37° C., 5% CO2 for a period of 24 h. These cells were used for the lymphocyte proliferation as well as cytokine release assay.
The plated cells were treated with different concentrations of the test compound (prepared as mM stock in DMSO and diluted with DMSO to achieve the following final concentrations in the assay: 100, 10, 1, 0.1, 0.01, 0.001, 0.0001, 0.00001 and 0.000001 μM) and incubated for 30 min. The cells were then stimulated with PHA (prepared as 1 mg/mL stock in RPMI 1640 culture medium and used at a final concentration of 5 μg/mL). FK506 was used as a standard. The plates were incubated at 37° C., 5% CO2 for 48 h. The cytokines in the supernatant collected were detected using ELISA kit (BD biosciences, USA). The cytokines evaluated in the assay were TNF-α, IL-2, IL-6, and IFN-γ.

IL-6 [2] = assay: Screening in LPS stimulated THP-1 cells: IL-6; type: cell-based; settings: Homo sapiens, 24 h, ELISA
Protocol: IL-6 (BD Biosciences, USA) production by LPS (Escherchia coli 0127:B8, Sigma, USA) in THP-1 cells (ATCC number: TIB202) was designed as in reference, Journal of Immunology, 151, 5631-5638, (1993), the disclosure of which is incorporated by reference for the teaching of the assay.
THP-1 cells were cultured in RPMI 1640 culture medium (Gibco BRL, UK) containing 100 U/mL penicillin and […] streptomycin, (100× solution, Sigma, USA) containing 10% FBS (JRH Biosciences, USA). 25,000 cells were seeded per well in 96-well plate (Nunc, USA). The cells were differentiated with PMA (Sigma, USA, prepared as 100 μg/mL stock in RPMI and was diluted to 5 ng/mL). The test compound (prepared as 20 mM stock in DMSO and diluted with DMSO to achieve the following final concentrations in the assay: 100, 10, 1, 0.1, 0.01, 0.001 and 0.0001 μM) or vehicle (0.5% DMSO) were added to the cells and the cells were incubated for 30 min at 37° C. LPS (Sigma, USA, prepared as 1 mg/mL stock in PBS) was added to achieve a final concentration of 1 μg/mL. Plates were incubated at 37° C. for 24 h at 5% CO2. Supernatants were harvested, and assayed for TNF-α and IL-6 by ELISA as described by the manufacturer (BD Biosciences, USA). Percent inhibition of cytokine release compared to the control was calculated. The IC50 values were calculated by a nonlinear regression method.

hPBMCs = assay: Lymphocyte proliferation assay (T-cell proliferation of normal hPBMCs); type: cell-based; settings: Homo sapiens
Source text: The assay method was designed as in references, The Journal of Immunology, 153, 1-9, (1994), and Clinical and Diagnostic Laboratory Immunology, 7, 687-692, (2000), the disclosure of which is incorporated by reference for the teaching of the assay.
as §3
The plated cells were treated with different concentrations of the test compound (prepared as 20 mM stock in DMSO and diluted with DMSO to achieve the following final concentrations in the assay: 100, 10, 1, 0.1, 0.01, 0.001 and 0.0001 μM) and were incubated for 30 min. The cells were then stimulated with 5 ng/mL PMA (Sigma, USA, prepared as 100 μg/mL stock in RPMI and was diluted to 5 ng/mL) and 5 μg/mL PHA (Sigma, USA, prepared as a 1 mg/mL stock in RPMI). The plates were incubated at 37° C., 5% CO2 for 48 h. The cells were treated overnight with 0.1 μCi of tritiated thymidine per well (obtained from BARC, India; prepared as stock of 1 mCi/mL) and was diluted in KRPH buffer to 10 μCi/mL and […] and was added per well to obtain a final concentration 0.1 μCi/well) and at the end of 48 h, the anti-proliferative effect of the compound was measured using the following formula: […]
Controls consisted of hPBMCs with PHA and PMA (Stimulated), hPBMCs with RPMI (Un-stimulated), hPBMCs with FK506 (positive control, Sigma, USA, prepared as 20 mM stock in DMSO and diluted with DMSO to achieve the following final concentrations in the assay: 100, 10, 1, 0.1, 0.01, 0.001 and 0.0001 μM).

[3] = Human monocytes, 3 h, ± SE, N = 3

## C/C=C/C(O)C(C)/C=C/C(=N\O)C(C)C(O)C(C)C1OC(=O)/C(OC)=C/C(C)=C/C(C)C(O)C(CC)C(O)C(C)C/C(C)=C/C=C/C1OC (stereo not shown) [Compound of example 7, (3Z,5E,13E,15E)-18-((5Z,6E,10E)-3,9-Dihydroxy-5-(hydroxymino)-4,8-dimethyldodeca-6,10-dien-2-yl)-9-ethyl-8,10-dihydroxy-3,17-dimethoxy-5,7,11,13-tetramethyl oxacyclooctadeca-3,5,13,15-tetraen-2-one]
GBP-1; Synovial cells, N = 1
  GBP-1 gene expression: −1.5 log fold change
GBP-1; THP-1 cells, ± SE, N = 3
  GBP-1 gene expression: −1.6 + 1.0 log fold change
IL-6 [1]; [3]
  IL-6 gene expression: −1.1 + 1.0 log fold change
IL-6 [1]; Synovial cells, 12 h, N = 1
  IL-6 gene expression: −4.0 log fold change
IL-6 [1]; THP-1 cells, 12 h, ± SE, N = 3
  IL-6 gene expression: −1.5 + 1.0 log fold change
IL-1β; [3]
  IL-1β gene expression: −4.0 log fold change
IL-1β; Synovial cells, 12 h, N = 1
  IL-1β gene expression: −0.3 log fold change
IL-1β; THP-1 cells, 12 h, ± SE, N = 3
  IL-1β gene expression: −0.6 + 0.7 log fold change
TNF-α; Table 3: PHA-PMA induced hPBMC's, 48 h, read-out: TNF-α IC50
  IC50: 0.02 µM
TNF-α; Table 4: mitogen stimulated production from hPBMC's, read-out: TNF-α (IC50 μM)
  IC50: 0.07 µM
IL-6 [2]
  IC50: 40 nM
hPBMCs; read-out: Stimulated hPBMC's IC50 (inhibition of cell proliferation)
  IC50: 3 nM
hPBMCs; read-out: Unstimulated hPBMC's IC50 (inhibition of cell proliferation)
  IC50: 5000 nM
